Measured values published in patent publication US20130310347A1, “MULTI-MODALITY MOLECULAR IMAGING HIGH-THROUGHPUT ASSAY FOR IDENTIFYING HEAT SHOCK PROTEIN 90 (HSP90) INHIBITORS” (The Board of Trustees of the Leland Stanford Junior …, priority 2012, published 2013).

Key:
[1] = test system: Hsp90 client proteins (Raf-1, total and phosphorylated Akt); assay: Western blotting of Hsp90 client proteins in 293T cells; format: cell-based, human; conditions: 2 μM, 24 h, positive control
Description: FIG. 5A is a digital image of a western blot analysis illustrating the effect of lead compounds on the expression of Hsp90 client proteins. 293T cells stably expressing Hsp90(α/β)/p23 split reporters were treated with carrier control or compounds CP1, CP9, or CP18 (5 μM each) for 24 h. The known Hsp90 inhibitor PU-H71 (2 μM) was used as a positive control. The expression of Hsp90 client proteins (Raf-1, total and phosphorylated Akt) was determined by western blotting. α-Tubulin was used as a loading control.
Cells treated with PU-H71 (2 μM) served as a positive control.
Cells treated with 2 μM of PU-H71 served as a positive control. Western blotting of Hsp70, phosphorylated and total Akt and co-immunoprecipitation of Hsp90(α/β)/p23 interactions was performed as described Inglese et al., (2006) Proc. Nat. Acad. Sci. U.S.A. 103: 11473-11478, incorporated herein by reference in its entirety. The expression of Raf-1 was determined using rabbit polyclonal antibodies against Raf-1 (0.5 μg/ml, Abcam).

[2] = test system: DOX-resistant V79/ADR lung cancer cells; assay: Sensitivity to DOX, Alamar Blue assay; format: cell-based; conditions: DOX 0.31-10 μM with inhibitor (CP9 8 μM), 24 h
Description: FIGS. 13A-13C illustrate the inhibition of cell proliferation of DOX-resistant V79/ADR lung cancer cells by CP9 and the Hsp90 inhibitor PU-H71 in cell culture. V79 lung cancer cells and […] cells that are resistant to DOX were treated with DOX (0.31-10 μM) in the presence or absence of CP9 (8 μM) for 24 h before determination of cell number by an Alamar Blue assay.
Both Hsp90 isoforms (α and β) are expressed in cancer cells, but Hsp90β is constitutively expressed, whereas the expression of Hsp90α is highly inducible during stress and drug treatment. Using the genetically encoded split Renilla reporter system according to the disclosure, it was possible to decipher the individual contributions of each isoform in determining the sensitivity of Hsp90 inhibitors. It was reported that the transcription of MDR1 is regulated by HSF-1, which in turn is regulated by Hsp90α (Trepel et al., (2010) Nat. Rev. Cancer 10: 537-549). To determine the biological significance of CP9 selectivity in inhibiting Hsp90α/p23 interactions, V79 lung cancer cells and V79/ADR cells that overexpress multidrug-resistant protein and are insensitive to growth inhibition by doxorubicin (DOX) were used. V79 and V79/ADR cells were treated with DOX alone or in the presence of CP9. On the other hand, the addition of CP9 sensitized V79/ADR cells to DOX, as shown by the decrease in cell proliferation relative to treatment with DOX alone, as shown in FIG. 13B. […] The results also are consistent with the observation that derivatives of Hsp90 inhibitor peptides sensitize cancer cells with overexpression of MDR to epirubicin (a class of anthracyclines that includes DOX) (Molnar et al., (2007) In Vivo 21: 429-433).

CC(C)NCCCn1c(Sc2cc3c(cc2I)OCO3)nc2c(N)ncnc21 [PU-H71, reference compound]
levels of Hsp90 client proteins (pAkt/total Akt, Raf-1) [1]: decreased levels of Raf-1, pAkt and total Akt | sensitivity of drug-resistant V79/ADR cells to DOX [2]: restored the sensitivity
